# Assay results from patent publication US20260297136A1, “PEPTIDES WITH LIPOLYTIC, ANTI-LIPOGENIC, ANTIFIBROTIC AND ANTI-INFLAMMATORY ACTIVITY” (FUNDACIÓ HOSPITAL UNIVERSITARI VALL D'HEBRON - INSTITUT DE …, priority 2023, published 2026).
# Legend:
# human mature adipocytes = experiment: Lipolysis in human mature adipocytes (glycerol production), Example 3; assay type: cell-based; details: 16 h
# Protocol: FIG. 4 Mature human subcutaneous adipocytes were treated with vehicle (DMSO), 1 μM of Isoproterenol, Semaglutide (10 nM) or GP6 (25, 50 or 100 μg/ml) for 16 h. Glycerol concentration was assessed using a Lipolysis Assay Kit (Tebu-bio).
# Human preadipocytes and cell culture reagents were from purchased from Tebu-Bio (Tebu-bio, Barcelona, Spain) and differentiation protocol was done following the manufacturer's instructions. Human adipocytes were maintained in a humidified incubator with 5% CO2 at 37° C. (Sex hormone-binding globulin overexpression protects against high-fat diet-induced obesity in transgenic male mice. Saez-Lopez C, Villena J A, Simo R, Selva D M. J Nutr Biochem. 2020 November; 85:108480. doi: 10.1016/j.jnutbio.2020.108480).
# Lipolysis assays were performed using a Lipolysis Kit (Tebu-Bio) following the manufacturer's instructions as previously described by Saez-Lopez and collaborators (Sex hormone-binding globulin overexpression protects against high-fat diet-induced obesity in transgenic male mice. Saez-Lopez C, Villena J A, Simo R, Selva D M. J Nutr Biochem. 2020 November; 85:108480. doi: 10.1016/j.jnutbio.2020.108480.)
# [1] = test system: obesity and fatty liver disease mouse model; experiment: Therapeutic effects in an obesity and fatty liver disease mouse model, Example 6; assay type: in vivo, C57BL6/J male mice
# Protocol: C57BL6/J male mice were purchased and kept for quarantine and acclimatization for a period of about 7 days before initiation of every experiment. Mice were housed in clean and sterilized mice cages and maintained in a controlled environment with 22+3° C. temperature, 50+20% humidity, a light/dark cycle of 12 hours each and 15-20 fresh air changes per hour.
# For Obesity and NAFLD induction, the animals were fed ad libitum, either with chow diet (150SP-10, Safe Diets) or 45% high-fat diet (TD.190179, Envigo) plus 30% fructose (F0127, Sigma Aldrich) in drinking water for 20 weeks. The therapeutic effect of a daily subcutaneous injection of GP6 (20 mg/kg/day) in this mouse model was assessed for 10 weeks, starting the treatment on week 10 of the experiment until week 20.
# A group of control mice (n=10) was fed with control diet and regular drinking water and a group of mice (n=30) obesity and fatty liver disease was induced for 10 weeks. At this point, mice were randomly divided in three groups of n=10, the first group was treated with daily subcutaneous injections of vehicle (water), the second group was treated with Telmisartan (5 mg/kg/day) in the drinking water and a subcutaneous injection of vehicle, and the third group with daily subcutaneous injection of GP6 (20 mg/kg/day) during 10 weeks.
# At the end of the experiment mice were sacrificed, serum samples were extracted, tissues were weighted and part was fixed in paraformaldehyde for histology studies and part immediately frozen at −80 C for mRNA and protein expression studies as well as assessment of triglycerides.
# The histology studies, AST and ALT measurements, TG measurements, and the RNA analysis were performed as described in Example 4.
# HepG2 cells = experiment: Hepatic lipogenesis gene expression in HepG2 cells (24 h), Example 7; assay type: cell-based, human; details: 40 μg/ml, vs vehicle
# Text: FIG. 32. Effect of GP6 and modified peptides on hepatic lipogenesis in HepG2 cells. Each bar within each group represents mRNA levels of a key hepatic lipogenic enzyme, from left to right: Acetyl-CoA Carboxylase (ACC), ATP Citrate Lyase (ACLY) and Fatty Acid Synthase (FAS), and a key transcription factor regulating several lipogenic enzymes such as PPARγ (PPARγ).
# Cell culture reagents were from Life Technologies Inc (Invitrogen SA, Barcelona, Spain). HepG2 hepatoblastoma cells (cat. no. HB-8065; ATCC, LGC Standards SLU, Barcelona, Spain) were maintained in Dulbecco's modified Eagle medium (DMEM) supplemented with 10% fetal bovine serum and antibiotics.
# • HepG2 cells were cultured for 5 day in the absence or presence of 30 mM fructose. Cells cultured in 30 mM fructose were daily treated with vehicle, Telmisartan, Semaglutide or EDL6D. • HepG2 cells were cultured for 24 h in the absence or presence of GP6 (40 μg/ml), GP10 (40 μg/ml), GP11 (40 μg/ml), GP12 (40 μg/ml), GP13 (40 μg/ml) or SHBG (20 nM). • HepG2 cells were cultured in the absence or presence of 30 mM fructose and treated for 2 h with vehicle or GP4 (40 μg/ml), GP6 (40 μg/ml), GP7 (40 μg/ml), GP8 (40 μg/ml), GP9 (40 μg/ml), GP10 (40 μg/ml), GP11 (40 μg/ml), GP12 (40 μg/ml), GP13 (40 μg/ml) or SHBG (20 nM).
# Total RNA was extracted from HepG2 and LX-2 cells using TRIzol reagent (Invitrogen SA). Reverse transcription was performed at 42° C. for 50 minutes using […] of total RNA, 200 U of Superscript II, and an oligo-dT primer and reagents provided by Invitrogen. An aliquot of the reverse transcription product was amplified in a […] reaction using SYBRGreen (Invitrogen SA) with appropriate oligonucleotide primer pairs corresponding to human SHBG, ACC, FAS, ACLY, PPARG, and 18S and mouse ACC, FAS, ACLY, PPARG, Col1A1 and 18S. Results were analyzed using the 7000 Sequence Detection System program (Applied Biosystems, Thermo Fisher Scientific, Barcelona, Spain) (Shez-Lopez et al Endocrinology 2017).
# [2] = 20 mg/kg/day sc, 10 weeks, vs vehicle
# [3] = 20 mg/kg/day sc, 10 weeks, blind pathologist, lipid reduction corroborated
smiles,measurement,setting,value
CC[C@@H](C)[C@@H](NC(=O)[C@H](NC(=O)CNC(=O)[C@@H](CCC(=O)O)NC(=O)[C@H]1CCCN1C(=O)[C@@H](CC(=O)O)NC(=O)[C@@H](Cc1c[nH]c2ccccc12)NC(=O)[C@H](NC(=O)[C@@H](CCCNC(=N)N)NC(=O)[C@H](NC(=O)[C@@H](CCC(=O)O)NC(=O)[C@@H](Cc1ccccc1)NC(=O)[C@@H](CO)NC(=O)[C@@H](CO)NC(=O)[C@@H](CO)NC(=O)[C@H](NC(=O)[C@@H](CCCCN)NC(=O)[C@H](N)[C@H](C)O)[C@H](C)O)C(C)C)[C@H](C)O)C(C)C)C(=O)N[C@H](Cc1ccccc1)C(=O)N[C@H](Cc1ccc(O)cc1)C(=O)O [GP6],increase of glycerol production (lipolysis),human mature adipocytes; 25 μg/ml,200%
same,increase of glycerol production (lipolysis),human mature adipocytes; 50 μg/ml,270%
same,increase of glycerol production (lipolysis),human mature adipocytes; 100 μg/ml,315%
same,lipolysis induction compared with Semaglutide,"human mature adipocytes; GP6 25, 50 or 100 μg/ml versus Semaglutide 10 nM",performing more efficiently than Semaglutide
same,AST serum levels,"[1]; 20 mg/kg/day sc, 10 weeks",reduced significantly
same,hepatic fibrosis (picrosirius staining),"[1]; 20 mg/kg/day sc, 10 weeks",did not showed hepatic fibrosis
same,total body weight gain,"[1]; 20 mg/kg/day sc, 10 weeks",reducing total body weight gain
same,reduction of hepatic lipid accumulation compared with Telmisartan,"[1]; 20 mg/kg/day sc, 10 weeks, vs Telmisartan 5 mg/kg/day",to a greater extend than Telmisartan treatment
same,Total body weight versus control mice,"[1]; 20 mg/kg/day sc, 10 weeks, vs control diet mice",not significantly heavier than control mice
same,ACC mRNA levels in hepatic tissue,[1]; [2],reduced the mRNA levels
same,Col1A1 expression in hepatic tissue,[1]; [2],reduced expression levels
same,F480 mRNA levels (adipose tissue inflammation),[1]; [2],reduced expression
same,F480 mRNA levels in hepatic tissue,[1]; [2],reduced expression
same,IL1β expression (adipose tissue inflammation),[1]; [2],reduced expression
same,PPARγ mRNA levels in hepatic tissue,[1]; [2],reduced the mRNA levels
same,TGFβ1 expression in hepatic tissue,[1]; [2],reduced expression levels
same,adipose tissue fibrosis (Col1A mRNA expression),[1]; [2],reduced adipose tissue fibrosis
same,heart fibrosis (Col1A1 mRNA expression),[1]; [2],reduced heart fibrosis
same,hepatic expression of TNFα,[1]; [2],reduced the hepatic expression
same,liver triglyceride (TAG) content,[1]; [2],reduced significantly
same,liver weight,[1]; [2],reduced significantly
same,serum glucose levels,[1]; [2],reduced the increase glucose levels
same,hepatic lipid accumulation (histology),"[1]; 20 mg/kg/day sc, 10 weeks, vs vehicle, H&E",reduced significantly
same,Brunt score,[1]; [3],corroborated
same,Steatosis score,[1]; [3],corroborated
same,Alanine transaminase (ALT) serum levels,"[1]; sc, as stated in the summary for Example 6",reduction
same,ACC mRNA levels,HepG2 cells,reduced the mRNA levels
same,ACLY mRNA levels,HepG2 cells,reduced the mRNA levels
same,FAS mRNA levels,HepG2 cells,reduced the mRNA levels
same,PPARγ mRNA levels,HepG2 cells,reduced the mRNA levels
